Experimental data: ChEMBL document CHEMBL4811258, “Potent Antimalarials with Development Potential Identified by Structure-Guided Computational Optimization of a Pyrrole-Based Dihydroorotate Dehydrogenase Inhibitor Series” (J Med Chem, 2021); call rule not given here
Values after ≈ are worked out from the molar mass of the structure shown.

What was measured:
[1] = Inhibition of Plasmodium falciparum DHODH expressed in Escherichia coli BL21-DE3 using L-dihydroorotate as substrate by steady-state DCIP method
[2] = Inhibition of Plasmodium vivax DHODH expressed in Escherichia coli BL21-DE3 using L-dihydroorotate as substrate by steady-state DCIP method
[3] = target: Dihydroorotate dehydrogenase (quinone), mitochondrial (Rattus norvegicus, UniProt Q63707); assay: Inhibition of rat DHODH up to 100 uM; details: up to 100 µM
[4] = target: Dihydroorotate dehydrogenase (quinone), mitochondrial (Mus musculus, UniProt O35435); assay: Inhibition of mouse DHODH up to 100 uM; details: up to 100 µM
[5] = Inhibition of dog DHODH up to 100 uM; parameters: species or system Canis lupus familiaris; details: up to 100 µM
[6] = test system: L1210; assay: Cytotoxicity against mouse L1210 cells; type: cell-based
[7] = test system: HepG2; assay: Cytotoxicity against human HepG2 cells; type: cell-based
[8] = target: Albumin (Bos taurus, UniProt P02769); assay: Binding affinity to bovine serum albumin by Albumax assay; type: ADME; details: cattle, isolated protein
[9] = Binding affinity to microsome (unknown origin); type: ADME; details: microsomes
[10] = Intrinsic clearance in mouse liver microsomes at 1 uM measured up to 4 hrs by LC-MS analysis; type: ADME, Microsome
[11] = Unbound intrinsic clearance in mouse liver microsomes at 1 uM measured up to 4 hrs by LC-MS analysis; type: ADME, Microsome
[12] = Half life in Swiss mouse at 20 mg/kg, po measured up to 24 hrs by LC-MS analysis; type: ADME, organism-based; details: in vivo
[13] = Tmax in Swiss mouse at 20 mg/kg, po measured up to 24 hrs by LC-MS analysis; type: ADME, organism-based; details: in vivo
[14] = Cmax in Swiss mouse at 20 mg/kg, po measured up to 24 hrs by LC-MS analysis; type: ADME, organism-based; parameters: route oral, dose 20 mg/kg, time <=24; details: in vivo
[15] = AUC (0 to infinity) in Swiss mouse at 20 mg/kg, po measured up to 24 hrs by LC-MS analysis; type: ADME, organism-based; parameters: route oral, dose 20 mg/kg, time <=24; details: in vivo
[16] = Plasma clearance in Sprague-Dawley rat at […], iv measured up to 24 hrs; type: ADME, organism-based; details: dose 2.9 mg/kg
[17] = Volume of distribution at steady state in Sprague-Dawley rat at […], iv measured up to 24 hrs; type: ADME, organism-based; details: in vivo, dose 2.9 mg/kg, read-out: Vdss
[18] = Apparent half life in Sprague-Dawley rat at 31 mg/kg, po measured up to 24 hrs; type: ADME, organism-based; details: in vivo, read-out: t1/2(app) (converted)
[19] = Tmax in Sprague-Dawley rat at 31 mg/kg, po measured up to 24 hrs; type: ADME, organism-based; details: in vivo
[20] = Cmax in Sprague-Dawley rat at 31 mg/kg, po measured up to 24 hrs; type: ADME, organism-based; parameters: route oral, dose 31 mg/kg, time <=24; details: in vivo
[21] = AUC (0 to infinity) in Sprague-Dawley rat at 31 mg/kg, po measured up to 24 hrs; type: ADME, organism-based; parameters: route oral, dose 31 mg/kg, time <=24; details: in vivo
[22] = Oral bioavailability in Sprague-Dawley rat at 31 mg/kg measured up to 24 hrs; type: ADME, organism-based; details: in vivo
[23] = test system: Plasmodium falciparum; assay: Antiplasmodial activity against asexual blood stage chloroquine and pyrimethamine-resistant Plasmodium falciparum Dd2 infected in human erythrocytes assessed as parasite killing; type: functional, organism-based
[24] = test system: Plasmodium falciparum
[25] = target: T1, Cytochrome P450 2B6 (Homo sapiens, UniProt P20813)
T1 sequence (P20813 whole entry): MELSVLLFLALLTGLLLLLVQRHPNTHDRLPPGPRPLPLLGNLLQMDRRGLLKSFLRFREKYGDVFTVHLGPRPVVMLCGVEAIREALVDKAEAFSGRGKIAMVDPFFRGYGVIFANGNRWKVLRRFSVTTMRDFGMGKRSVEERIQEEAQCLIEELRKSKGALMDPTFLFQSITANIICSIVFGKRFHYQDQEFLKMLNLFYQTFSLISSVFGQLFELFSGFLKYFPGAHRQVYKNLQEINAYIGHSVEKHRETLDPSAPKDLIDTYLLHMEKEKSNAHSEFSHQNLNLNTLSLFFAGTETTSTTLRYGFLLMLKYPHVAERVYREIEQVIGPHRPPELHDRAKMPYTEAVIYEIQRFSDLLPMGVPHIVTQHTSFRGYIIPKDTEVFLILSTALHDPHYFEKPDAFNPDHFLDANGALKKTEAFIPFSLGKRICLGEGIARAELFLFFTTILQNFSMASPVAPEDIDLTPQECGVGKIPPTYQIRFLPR

[26] = target: T2, Cytochrome P450 2C8 (Homo sapiens, UniProt P10632)
T2 sequence (P10632 whole entry): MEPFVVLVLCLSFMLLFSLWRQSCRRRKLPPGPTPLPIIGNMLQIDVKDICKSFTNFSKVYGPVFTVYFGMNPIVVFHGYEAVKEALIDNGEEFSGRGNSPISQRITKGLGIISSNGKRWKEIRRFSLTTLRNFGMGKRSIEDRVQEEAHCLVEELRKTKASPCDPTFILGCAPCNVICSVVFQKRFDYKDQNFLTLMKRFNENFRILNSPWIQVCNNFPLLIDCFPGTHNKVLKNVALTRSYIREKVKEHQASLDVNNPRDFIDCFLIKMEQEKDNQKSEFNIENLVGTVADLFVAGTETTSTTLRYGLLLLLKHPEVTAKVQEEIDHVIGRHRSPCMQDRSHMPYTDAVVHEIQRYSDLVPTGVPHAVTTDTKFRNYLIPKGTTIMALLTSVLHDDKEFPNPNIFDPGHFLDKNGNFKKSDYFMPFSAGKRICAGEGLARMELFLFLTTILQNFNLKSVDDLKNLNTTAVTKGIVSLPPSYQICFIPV

[27] = target: Cytochrome P450 3A4 (Homo sapiens, UniProt P08684)
[28] = buffer, pH 1.6, 1 h
[29] = simulated gi fluid, pH 6.5, 5 h
[30] = simulated gi fluid, pH 5.8, 5 h
[31] = buffer, pH 7.4, 5 h
[32] = human, plasma
[33] = rat, plasma
[34] = mouse, plasma
[35] = in vitro; details: rat, blood and plasma
[36] = in vitro; details: mouse, blood and plasma

Sequence of Dihydroorotate dehydrogenase (quinone), mitochondrial (Rattus norvegicus, UniProt Q63707) (Q63707 whole entry): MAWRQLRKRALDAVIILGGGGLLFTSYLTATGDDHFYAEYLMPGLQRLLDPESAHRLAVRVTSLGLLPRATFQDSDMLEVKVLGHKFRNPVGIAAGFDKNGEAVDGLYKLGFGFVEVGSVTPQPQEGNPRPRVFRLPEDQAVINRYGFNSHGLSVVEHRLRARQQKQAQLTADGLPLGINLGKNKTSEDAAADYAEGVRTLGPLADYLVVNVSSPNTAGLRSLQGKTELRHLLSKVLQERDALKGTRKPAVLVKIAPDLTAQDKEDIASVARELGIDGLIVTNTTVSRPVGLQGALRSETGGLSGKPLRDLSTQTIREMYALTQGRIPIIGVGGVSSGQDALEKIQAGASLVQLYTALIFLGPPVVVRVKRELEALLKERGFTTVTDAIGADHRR
Sequence of Albumin (P02769 whole entry): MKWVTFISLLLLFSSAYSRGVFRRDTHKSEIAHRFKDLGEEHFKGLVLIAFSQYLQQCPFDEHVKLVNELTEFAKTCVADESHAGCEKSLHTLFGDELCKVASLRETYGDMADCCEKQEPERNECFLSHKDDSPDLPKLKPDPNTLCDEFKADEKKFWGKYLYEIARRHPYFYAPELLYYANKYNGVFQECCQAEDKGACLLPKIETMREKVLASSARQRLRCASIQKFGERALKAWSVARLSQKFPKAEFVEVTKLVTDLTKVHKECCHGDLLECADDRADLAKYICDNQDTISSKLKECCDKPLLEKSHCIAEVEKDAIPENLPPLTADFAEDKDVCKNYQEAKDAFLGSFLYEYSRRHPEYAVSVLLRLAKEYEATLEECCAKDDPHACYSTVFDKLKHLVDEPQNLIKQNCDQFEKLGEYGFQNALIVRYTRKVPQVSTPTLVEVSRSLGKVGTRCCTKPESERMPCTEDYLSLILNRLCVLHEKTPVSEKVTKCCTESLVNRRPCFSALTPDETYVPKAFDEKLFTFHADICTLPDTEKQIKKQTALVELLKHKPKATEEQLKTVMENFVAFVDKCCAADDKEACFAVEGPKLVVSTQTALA
Sequence of Cytochrome P450 3A4 (P08684 whole entry): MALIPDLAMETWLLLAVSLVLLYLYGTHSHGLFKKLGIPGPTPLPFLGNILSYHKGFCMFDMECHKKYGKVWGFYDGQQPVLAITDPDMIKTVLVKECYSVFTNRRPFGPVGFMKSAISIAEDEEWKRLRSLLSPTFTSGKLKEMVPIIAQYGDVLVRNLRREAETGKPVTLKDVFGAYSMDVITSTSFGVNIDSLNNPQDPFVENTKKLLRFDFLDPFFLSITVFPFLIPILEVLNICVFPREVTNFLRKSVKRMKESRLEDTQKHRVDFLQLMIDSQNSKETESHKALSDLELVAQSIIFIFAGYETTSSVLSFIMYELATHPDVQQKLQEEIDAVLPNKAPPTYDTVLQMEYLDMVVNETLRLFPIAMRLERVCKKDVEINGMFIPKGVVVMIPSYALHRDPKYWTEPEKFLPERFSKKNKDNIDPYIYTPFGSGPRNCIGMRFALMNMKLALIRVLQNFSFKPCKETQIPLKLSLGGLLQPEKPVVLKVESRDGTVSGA
Sequence of Dihydroorotate dehydrogenase (quinone), mitochondrial (Mus musculus, UniProt O35435) (O35435 whole entry): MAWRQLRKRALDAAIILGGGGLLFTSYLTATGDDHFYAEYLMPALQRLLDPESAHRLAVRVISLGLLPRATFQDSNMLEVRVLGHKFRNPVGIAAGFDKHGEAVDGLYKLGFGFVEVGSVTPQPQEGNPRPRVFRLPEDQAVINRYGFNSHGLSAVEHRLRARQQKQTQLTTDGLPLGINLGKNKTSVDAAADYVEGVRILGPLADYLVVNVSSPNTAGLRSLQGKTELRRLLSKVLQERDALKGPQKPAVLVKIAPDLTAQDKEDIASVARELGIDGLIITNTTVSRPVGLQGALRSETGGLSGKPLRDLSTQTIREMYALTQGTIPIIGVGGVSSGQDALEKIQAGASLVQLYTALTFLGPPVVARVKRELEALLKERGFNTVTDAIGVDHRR

In the case of `Cc1c(Cc2ccc(C(F)(F)F)nc2)c[nH]c1C(=O)NC(C)c1cn[nH]c1` (stereo in doubt; form 1), the IC50 [1] is reported as 47 nM, the IC50 [2] is reported as 43 nM and the “inhibition (INH)” value [3] is reported as “Not Active”. For the same compound, the “inhibition (INH)” value [4] was “Not Active”, the “inhibition (INH)” value [5] was “Not Active” and the Activity [6] was “Non-Toxic”. For the same compound, the Activity [7] was “Non-Toxic”, the Activity [8] was 49.5% and the Activity [9] was 40.5%. The Intrinsic clearance [10] was 31 µL/min/mg, the CL free [11] was 52 µL/min/mg and the half-life [12] was 4.4 h. The Tmax [13] was 1 h, the Cmax [14] was 6.4 µM and the AUC(0-inf) [15] was 65 µM·h. The clearance at 24 h [16] was 6.2 mL/min/kg, the Vd at 24 h [17] was 1.7 L/kg and the half-life [18] was 3.4 h. The Tmax [19] was 3 h, the Cmax [20] was 2.4 µM and the AUC(0-inf) [21] was 22 µM·h. The bioavailability [22] was 10%, the EC50 [23] was 2.4 nM and the EC50 [24] was 4.5 nM. The IC50 [25] was greater than 20000 nM, the IC50 [26] was 18300 nM and the TDI [27] was “Active”. It also gave a solubility [28] of 81 µg/mL (≈ 215 µM), a solubility [29] of 34 µg/mL (≈ 90.1 µM) and a solubility [30] of 81 µg/mL (≈ 215 µM). It also gave a solubility [31] of 23 µg/mL (≈ 60.9 µM), a PPB [32] of 84% and a PPB [33] of 91.4%. The PPB [34] was 92.1%, the blood plasma ratio [35] was 1.3 and the blood plasma ratio [36] was 1.4.
